Measurements reported in patent publication US4728641A, “Ganglioside derivatives” (Burroughs Wellcome Co., priority 1983, dated 1988).

Columns and labels:
[1] = test system: Candida albicans (strain CN 7996); assay: In vivo activity against Candida albicans infection in mice; parameters: species or system Swiss male albino mice (Charles River CD1); settings: cyclophosphamide 50 mg/kg i.v. 96 hours before infection, GM1 P 10 mg/kg s.c. 96 and 24 hours before infection, or both
Procedure: 53 Swiss male albino mice (Charles River CD1) weighing 23±1 g were randomly divided into […] groups of 10, 14, 14 and 15 animals each (groups 1 to 4 respectively). Group 1 animals were injected with saline as a control group; Group 2 were injected with cyclophosphamide 50 mg/kg (0.2 ml/mouse) intravenously 96 hours before infection; Group 3 with cyclophosphamide 50 mg/kg (0.2 ml/mouse) intravenously 96 hours before infection and with GM1 P 10 mg/kg (0.25 ml/10 g) subcutaneously at 96 and 24 hours before infection; and Group 4 with GM1 P 10 mg/kg (0.25 ml/10 g) subcutaneously 96 and 24 hours before infection. The mice were then injected intravenously with 0.225 ml/mouse of an 18 hour culture of Sabouraud glucose broth containing 1.204×10^7 Candida albicans cells/ml (strain CN 7996).

Plasmodium berghei = assay: In vivo activity against Plasmodium berghei protozoa in mice; parameters: species or system Swiss male albino mice (Charles River CD1); settings: GM1 P (Example 1) 5 mg/kg s.c. 24 and 2 hours before infection, pyrimethamine 1 mg/kg s.c. days 0, 1 and 2, or both
Procedure: 40 Swiss male albino mice (Charles River CD1) weighing 22±1 g were randomly divided into groups of 10 and injected intraperitoneally with 0.1 ml/10 g of citrated blood of 6-day parasitised mice which had been diluted 1:1000 (v/v) with saline to obtain 1.58×10^6 P. berghei I.S.S./ml. The control group (1) were injected with saline, group 2 with ganglioside GM1 P prepared by the method of Example 1 (5 mg/kg s.c. in saline), group 3 with the known anti-protozoal agent pyrimethamine (1 mg/kg s.c. in CMC 0.25% in water, w/v), and group 4 with both GM1 P and pyrimethamine at the doses stated above. The dose volume was 0.25 ml/10 g. The GM1 P was administered 24 hours and 2 hours before infection (Day 0) and the pyrimethamine on days 0,1 and 2.

Row | Compound | Number alive at Day 23 ([1]; Day 23) | Mean survival time [1] | Mortality (%) Day 9 (Plasmodium berghei; Day 9) | Mortality (%) Day 13 (Plasmodium berghei; Day 13)
1 | O=P1(N(CCCl)CCCl)NCCCO1 (stereo not shown) [cyclophosphamide] | 0 | 1.21 days | – | –
2 | CCc1nc(N)nc(N)c1-c1ccc(Cl)cc1 [pyrimethamine] | – | – | 50% | 90%
